Results from US8410337B2, “Plant tubby-like proteins” (Academia Sinica, priority 2003, dated 2013).

Tests used:
AtTLP7 gene expression = details: channel 2 treated vs channel 1 control; cited from earlier work
Arabidopsis seeds = assay: Seed germination on media containing ABA; assay type: in vivo, Arabidopsis thaliana; details: 1 μM ABA
Protocol: (§1) All seeds of the above-described lines were surface sterilized with 70% ethanol for 30 s and then with 6% household bleach for 5 min before being washed five times with sterile water. For aseptic growth, they were plated on solid medium containing Murashige and Skoog salts (Invitrogen), vitamins (Duchefa), 0.7% phytoagar (Invitrogen), and 1% sucrose and transferred to a tissue culture room. For soil growth, seedlings were transferred into individual pots 8-10 days after germination and maintained in the growth chamber. Plants were grown at 22° C. under a 16-hr-light/8-hr-dark photoperiod aseptically or on soil.
To determine whether the transgenic plants display altered ABA responses, the above-described lines were germinated on media containing various concentrations of ABA. Seeds collected at the same or similar times were used. After surface-sterilization, sterile seeds were suspended in 0.15% agarose, and kept in the dark at 4° C. for 3 days to break residual dormancy. The seeds were then plated on agar plates in six replicates containing no ABA or 0.25, 0.5, 0.75, or 1.0 μM ABA in 12-cm plastic petri dishes. Each agar plate was divided into seven sections, and 50 seeds of WT and AtTLP9 transgenic seeds were plated on each section. A seed was regarded as germinated when the radicle protruded through the seed coat.

Arabidopsis seedlings = assay: Seedling growth and greening on MS agar with ABA; assay type: in vivo, Arabidopsis thaliana; details: 1 μM ABA and 1% sucrose
Protocol: as §1
In contrast, under the same conditions, attlp9-1 and attlp9-2 plants continued to grow and about 45% of the seedlings continued to develop true leaves, although at slower rates than abi4-1 mutant does.

AtTLP10 gene expression = details: channel 2 treated vs channel 1 control; cited from earlier work
ASK1 = target: T1, ASK1 (Arabidopsis thaliana, UniProt Q39255); assay: Yeast two-hybrid analysis; assay type: binding; details: AtTLP9 in pBD-GAL4 Cam, ASK1 in pAD-GAL4-2.1, yeast strain YRG-2
T1 construct: fragment containing the entire coding region of ASK1 (At1g75950); expressed in transfected cells; host or cells: Saccharomyces cerevisiae strain YRG-2
T1 sequence (Q39255 1-160): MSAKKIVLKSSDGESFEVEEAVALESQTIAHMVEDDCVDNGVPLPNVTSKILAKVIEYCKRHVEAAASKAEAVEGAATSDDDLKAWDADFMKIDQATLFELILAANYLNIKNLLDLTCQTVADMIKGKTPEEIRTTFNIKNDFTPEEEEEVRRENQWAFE
T1 sequence (Q9SQU1 1-380 partner): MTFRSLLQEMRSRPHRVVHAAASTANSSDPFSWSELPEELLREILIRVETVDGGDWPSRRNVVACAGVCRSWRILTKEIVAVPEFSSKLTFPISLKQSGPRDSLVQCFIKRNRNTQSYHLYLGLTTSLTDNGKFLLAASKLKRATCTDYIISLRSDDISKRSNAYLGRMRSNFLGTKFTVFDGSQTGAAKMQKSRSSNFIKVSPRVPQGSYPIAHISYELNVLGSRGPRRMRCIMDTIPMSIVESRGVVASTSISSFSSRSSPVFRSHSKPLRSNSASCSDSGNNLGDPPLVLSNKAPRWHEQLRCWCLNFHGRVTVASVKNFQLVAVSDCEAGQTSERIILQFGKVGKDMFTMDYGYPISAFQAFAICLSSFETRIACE
Source text: To test whether AtTLP could interact with ASK1, AtTLP9 was examined by the yeast two-hybrid analysis. Yeast two-hybrid vectors, pAD-GAL4-2.1 and pBD-GAL4 Cam (Stratagene, La Jolla, Calif.), were used for C-terminal GAL4 AD and BD fusion constructions, respectively. A 1.1-kb SalI-PstI fragment containing the entire coding region of AtTLP9 was cloned into the SalI-PstI site of the pBD-GAL4 Cam vector. A 480-bp EcoRI-PstI fragment containing the entire coding region of ASK1 (At1g75950) was cloned into the EcoRI-PstI site of the pAD-GAL4-2.1 vector. The yeast strain YRG-2 [MATa ura3-52 his3-200 ade2-101 lys2-801 trp1-901 leu2-3,112 ga14-542 ga180-538 LYS2::GAL1UAS-GAL1TATA-HIS3 URA3::(GAL43×17mer)-CYC1TATA-lacZ] was co-transformed with the two vectors. The Y2H analysis was performed according to the manufacturer's recommendations (Stratagene).

Molecule: O=C(O)Cc1c[nH]c2ccccc12 [IAA]
- Ch2/Ch1 Normalized (Mean) AtTLP7 (AtTLP7 gene expression): 2.21

Molecule: CC1=CC(=O)CC(C)(C)[C@@]1(O)/C=C/C(C)=C\C(=O)O [ABA, Abscisic acid]
- germination rate (Arabidopsis seeds; attlp9-1 and attlp9-2 mutant seeds): ~50%
- germination rate (Arabidopsis seeds; sense lines seeds (35S::AtTLP9 overexpression)): less than 10%
- seeds able to germinate (Arabidopsis seeds; wild-type seeds): about 30%
- seedlings showing developmental arrest (Arabidopsis seedlings; 10-d-old seedlings of sense lines): 90%
- seedlings continuing to develop true leaves (Arabidopsis seedlings; attlp9-1 and attlp9-2 plants): about 45%

Molecule: O=C(O)Cc1cccc2ccccc12 [NAA]
- Ch2/Ch1 Normalized (Mean) AtTLP10 (AtTLP10 gene expression): 2.22
- Ch2/Ch1 Normalized (Mean) AtTLP7 (AtTLP7 gene expression): 0.46

B1: AtTLP9: Arabidopsis TUBBY-like protein, polypeptide SEQ ID NO: 9 (protein, listed as Arabidopsis sp.)
chain: MTFRSLLQEMRSRPHRVVHAAASTANSSDPFSWSELPEELLREILIRVETVDGGDWPSRRNVVACAGVCRSWRILTKEIVAVPEFSSKLTFPISLKQSGPRDSLVQCFIKRNRNTQSYHLYLGLTTSLTDNGKFLLAASKLKRATCTDYIISLRSDDISKRSNAYLGRMRSNFLGTKFTVFDGSQTGAAKMQKSRSSNFIKVSPRVPQGSYPIAHISYELNVLGSRGPRRMRCIMDTIPMSIVESRGVVASTSISSFSSRSSPVFRSHSKPLRSNSASCSDSGNNLGDPPLVLSNKAPRWHEQLRCWCLNFHGRVTVASVKNFQLVAVSDCEAGQTSERIILQFGKVGKDMFTMDYGYPISAFQAFAICLSSFETRIACE
- interaction with ASK1 (ASK1): physically interacts with ASK1
